ChEMBL document CHEMBL1157938, “Cytotoxicity and inhibition of DNA topoisomerase I of polyhydroxylated triterpenoids and triterpenoid glycosides” (Bioorg Med Chem Lett, 2010)
Active and inactive are the calls of the source. The calls are words filed in the database; no cut-off is given here.

Columns and labels:
[1] = target: T1, DNA topoisomerase 1 (Homo sapiens) (UniProt P11387); assay: Inhibition of human DNA topoisomerase 1-mediated relaxation of supercoiled DNA at 450 uM
T1 sequence (whole entry): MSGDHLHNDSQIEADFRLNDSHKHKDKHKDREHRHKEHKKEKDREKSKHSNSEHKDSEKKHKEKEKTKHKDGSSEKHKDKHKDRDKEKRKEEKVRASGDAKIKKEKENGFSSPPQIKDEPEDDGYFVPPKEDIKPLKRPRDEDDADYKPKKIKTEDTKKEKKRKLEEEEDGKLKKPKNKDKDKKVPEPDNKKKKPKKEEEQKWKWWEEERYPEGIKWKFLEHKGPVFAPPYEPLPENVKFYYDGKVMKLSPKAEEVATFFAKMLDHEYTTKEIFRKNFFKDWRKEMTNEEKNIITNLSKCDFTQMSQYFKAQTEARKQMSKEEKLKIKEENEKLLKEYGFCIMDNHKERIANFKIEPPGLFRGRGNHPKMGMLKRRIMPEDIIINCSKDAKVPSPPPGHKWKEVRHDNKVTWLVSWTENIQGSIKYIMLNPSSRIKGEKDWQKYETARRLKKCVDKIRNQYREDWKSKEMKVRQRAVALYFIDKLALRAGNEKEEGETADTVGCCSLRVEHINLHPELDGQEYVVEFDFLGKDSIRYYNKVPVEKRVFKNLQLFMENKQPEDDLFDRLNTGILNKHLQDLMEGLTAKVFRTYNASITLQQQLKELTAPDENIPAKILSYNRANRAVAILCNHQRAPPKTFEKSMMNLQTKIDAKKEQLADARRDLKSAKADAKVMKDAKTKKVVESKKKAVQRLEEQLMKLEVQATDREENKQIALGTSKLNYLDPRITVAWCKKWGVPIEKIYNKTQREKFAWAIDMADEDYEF

PANC-1 [2] = assay: Cytotoxicity against human PANC1 cells at 25 uM after 48 hrs by WST8 assay; type: functional, cell-based
DNA topoisomerase 1 [3] = target: T2, DNA topoisomerase 1 (Homo sapiens, UniProt P11387); assay: Inhibition of human DNA topoisomerase 1-mediated relaxation of supercoiled DNA by gel electrophoresis
T2 sequence (P11387 whole entry): T1 sequence (whole entry)

[4] = Cytotoxicity against human MRC5 cells after 48 hrs by WST8 assay; type: cell-based
[5] = target: T1, DNA topoisomerase 1 (Homo sapiens); assay: Inhibition of human DNA topoisomerase 1 assessed as stabilize DNA-enzyme covalent complex
[6] = target: T1, DNA topoisomerase 1 (Homo sapiens); assay: Inhibition of human DNA topoisomerase 1 assessed as prevention of DNA-enzyme complex formation
A549 [7] = assay: Cytotoxicity against human A549 cells after 48 hrs by WST8 assay; type: functional; conditions: A549, 48 h
DNA topoisomerase 1 [8] = target: T2, DNA topoisomerase 1; assay: Inhibition of human DNA topoisomerase 1 at free enzyme state
[9] = target: T1, DNA topoisomerase 1 (Homo sapiens); assay: Inhibition of human DNA topoisomerase 1 assessed as intercalate into DNA at 312 uM
PC-3 [10] = assay: Cytotoxicity against human PC3 cells after 48 hrs by WST8 assay; type: functional; conditions: PC-3, 48 h
HL-60 [11] = assay: Cytotoxicity against human HL60 cells after 48 hrs by WST8 assay; type: functional; conditions: HL-60, 48 h
[12] = target: T1, DNA topoisomerase 1 (Homo sapiens); assay: Inhibition of human DNA topoisomerase 1-mediated relaxation of supercoiled DNA at 312 uM
[13] = target: DNA topoisomerase 2-alpha (Homo sapiens, UniProt P11388); assay: Inhibition of human DNA topoisomerase 2-mediated relaxation of supercoiled DNA by gel electrophoresis
MRC5 = assay: Cytotoxicity against human MRC5 cells at 25 uM after 48 hrs by WST8 assay; type: cell-based; conditions: mrc5, 48 h
[14] = target: T1, DNA topoisomerase 1 (Homo sapiens); assay: Inhibition of human DNA topoisomerase 1-mediated relaxation of supercoiled DNA at >125 uM
PC-3 [15] = assay: Cytotoxicity against human PC3 cells at 25 uM after 48 hrs by WST8 assay; type: functional, cell-based
A549 [16] = assay: Cytotoxicity against human A549 cells at 25 uM after 48 hrs by WST8 assay; type: functional, cell-based
HL-60 [17] = assay: Cytotoxicity against human HL60 cells at 25 uM after 48 hrs by WST8 assay; type: functional, cell-based
PANC-1 [18] = assay: Cytotoxicity against human PANC1 cells after 48 hrs by WST8 assay; type: functional; conditions: PANC-1, 48 h
[19] = target: T1, DNA topoisomerase 1 (Homo sapiens); assay: Inhibition of human DNA topoisomerase 1-mediated relaxation of supercoiled DNA at 63 to 125 uM
[20] = target: T1, DNA topoisomerase 1 (Homo sapiens); assay: Inhibition of human DNA topoisomerase 1-mediated relaxation of supercoiled DNA at 63 uM

DNA topoisomerase 2-alpha, sequence (P11388 whole entry): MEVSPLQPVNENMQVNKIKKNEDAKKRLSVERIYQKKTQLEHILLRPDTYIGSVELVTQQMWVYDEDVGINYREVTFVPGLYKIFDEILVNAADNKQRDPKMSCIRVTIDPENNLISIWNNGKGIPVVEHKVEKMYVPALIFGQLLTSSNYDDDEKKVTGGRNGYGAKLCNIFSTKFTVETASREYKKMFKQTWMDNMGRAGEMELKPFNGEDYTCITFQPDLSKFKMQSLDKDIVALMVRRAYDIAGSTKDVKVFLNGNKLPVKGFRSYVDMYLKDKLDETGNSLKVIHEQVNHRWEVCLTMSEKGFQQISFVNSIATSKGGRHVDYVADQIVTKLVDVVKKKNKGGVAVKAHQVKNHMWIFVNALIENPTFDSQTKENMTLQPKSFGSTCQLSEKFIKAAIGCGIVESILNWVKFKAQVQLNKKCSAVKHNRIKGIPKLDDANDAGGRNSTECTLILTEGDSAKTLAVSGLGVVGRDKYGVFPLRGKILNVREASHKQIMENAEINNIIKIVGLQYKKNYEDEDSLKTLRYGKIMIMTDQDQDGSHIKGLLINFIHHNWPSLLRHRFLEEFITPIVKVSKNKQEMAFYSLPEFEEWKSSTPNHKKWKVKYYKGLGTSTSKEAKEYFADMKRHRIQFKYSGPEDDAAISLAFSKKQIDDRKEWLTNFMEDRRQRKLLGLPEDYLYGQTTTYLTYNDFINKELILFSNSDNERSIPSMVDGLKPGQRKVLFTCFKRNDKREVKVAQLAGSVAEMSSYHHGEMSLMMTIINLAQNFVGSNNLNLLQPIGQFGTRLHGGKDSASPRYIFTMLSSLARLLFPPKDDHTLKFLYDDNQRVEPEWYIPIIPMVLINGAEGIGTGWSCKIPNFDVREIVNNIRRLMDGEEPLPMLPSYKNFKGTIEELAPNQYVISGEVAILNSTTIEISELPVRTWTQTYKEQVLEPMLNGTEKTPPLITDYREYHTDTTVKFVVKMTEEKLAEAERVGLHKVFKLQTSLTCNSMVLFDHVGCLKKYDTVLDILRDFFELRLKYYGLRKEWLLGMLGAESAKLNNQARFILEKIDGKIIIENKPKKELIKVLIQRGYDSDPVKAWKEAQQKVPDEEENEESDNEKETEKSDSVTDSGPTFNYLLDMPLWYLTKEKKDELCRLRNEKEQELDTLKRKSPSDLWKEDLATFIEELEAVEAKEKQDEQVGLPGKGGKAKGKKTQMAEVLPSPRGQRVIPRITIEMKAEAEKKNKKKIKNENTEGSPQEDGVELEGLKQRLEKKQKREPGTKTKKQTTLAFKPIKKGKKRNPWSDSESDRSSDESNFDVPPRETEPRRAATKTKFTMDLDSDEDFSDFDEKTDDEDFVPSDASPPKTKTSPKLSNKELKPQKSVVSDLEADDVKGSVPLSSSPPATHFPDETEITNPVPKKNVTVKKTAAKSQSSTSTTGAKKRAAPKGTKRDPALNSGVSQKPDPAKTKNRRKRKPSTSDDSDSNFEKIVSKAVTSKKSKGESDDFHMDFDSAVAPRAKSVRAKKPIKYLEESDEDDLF

inhibition [1]	IC50 (DNA topoisomerase 1 [3]) [µM]	inhibition [5]	inhibition [6]	IC50 (DNA topoisomerase 1 [8]) [µM]	Activity [9]	inhibition [12]	IC50 [13] [µM]	inhibition [14]	Compound	growth inhibition (GI) (PANC-1 [2])	GI50 at 48 h [4] [µM]	GI50 (A549 [7]) [µM]	GI50 (PC-3 [10]) [µM]	GI50 (HL-60 [11]) [µM]	growth inhibition (GI) (MRC5)	GI50 (PANC-1 [18]) [µM]	further results
–	–	–	–	–	–	–	–	Active	C/C=C(\C)C(=O)O[C@H]1[C@H](OC(C)=O)[C@]2(CO)[C@H](O)[C@H](O)[C@]3(C)C(=CC[C@@H]4[C@@]5(C)CC[C@H](O[C@@H]6O[C@H](C(=O)O)[C@@H](O)[C@H](O[C@@H]7O[C@@H](CO)[C@H](O)[C@H]7O)[C@H]6O[C@@H]6O[C@H](CO)[C@@H](O)[C@H](O)[C@H]6O)[C@](C)(CO)[C@@H]5CC[C@]43C)[C@@H]2CC1(C)C [AESCULIOSIDE IIE]	inactive	–	–	–	–	Not Active	–	growth inhibition (GI) (PC-3 [15]): inactive; growth inhibition (GI) (A549 [16]): inactive; growth inhibition (GI) (HL-60 [17]): inactive
–	> 250	–	–	–	–	–	> 250	Active	C/C=C(/C)C(=O)O[C@H]1[C@H](OC(C)=O)[C@]2(CO)[C@H](O)C[C@]3(C)C(=CC[C@@H]4[C@@]5(C)CC[C@H](O[C@@H]6O[C@H](C(=O)O)[C@@H](O)[C@H](O[C@@H]7O[C@@H](CO)[C@H](O)[C@H]7O)[C@H]6O[C@@H]6O[C@H](CO)[C@H](O)[C@H](O)[C@H]6O)C(C)(C)[C@@H]5CC[C@]43C)[C@@H]2CC1(C)C [AESCULIOSIDE IIK]	–	9.89	15.1	8.35	8.75	–	21.5	–
Active	109	–	–	–	–	inactive	> 250	–	C/C=C(/C)C(=O)O[C@H]1[C@H](O)[C@]2(CO)[C@H](O)[C@H](O)[C@]3(C)C(=CC[C@@H]4[C@@]5(C)CC[C@H](O[C@@H]6O[C@H](C(=O)O)[C@@H](O)[C@H](O[C@@H]7O[C@@H](CO)[C@H](O)[C@H]7O)[C@H]6O[C@@H]6O[C@H](CO)[C@H](O)[C@H](O)[C@H]6O)C(C)(C)[C@@H]5CC[C@]43C)[C@@H]2CC1(C)C [AESCULIOSIDE IIA]	inactive	–	–	–	–	Not Active	–	growth inhibition (GI) (PC-3 [15]): inactive; growth inhibition (GI) (A549 [16]): inactive; growth inhibition (GI) (HL-60 [17]): inactive
Active	160	inactive	Active	23.8	Active	inactive	> 250	–	C/C=C(/C)C(=O)O[C@H]1[C@H](OC(=O)C(C)C)[C@]2(CO)[C@H](O)[C@H](O)[C@]3(C)C(=CC[C@@H]4[C@@]5(C)CC[C@H](O[C@@H]6O[C@H](C(=O)O)[C@@H](O)[C@H](O[C@@H]7O[C@@H](CO)[C@H](O)[C@H]7O)[C@H]6O[C@@H]6O[C@H](CO)[C@@H](O)[C@H](O)[C@H]6O)[C@](C)(CO)[C@@H]5CC[C@]43C)[C@@H]2CC1(C)C [AESCULIOSIDE IIIB]	inactive	–	11.2	9.93	10.9	Not Active	–	–
Active	119	inactive	Active	23.8	Active	inactive	> 250	–	C/C=C(/C)C(=O)O[C@H]1[C@H](O)[C@]2(COC(C)=O)[C@H](O)C[C@]3(C)C(=CC[C@@H]4[C@@]5(C)CC[C@H](O[C@@H]6O[C@H](C(=O)O)[C@@H](O)[C@H](O[C@@H]7O[C@@H](CO)[C@H](O)[C@H]7O)[C@H]6O[C@@H]6O[C@H](CO)[C@@H](O)[C@H](O)[C@H]6O)[C@](C)(CO)[C@@H]5CC[C@]43C)[C@@H]2CC1(C)C [AESCULIOSIDE IIIA]	–	8.65	9.48	10.1	7.2	–	16.7	–

Further lines, the compound ahead of its results:

Compound	inhibition [1]	IC50 (DNA topoisomerase 1 [3]) [µM]	inhibition [5]	inhibition [6]	IC50 (DNA topoisomerase 1 [8]) [µM]	Activity [9]	inhibition [12]	IC50 [13] [µM]	inhibition [14]	growth inhibition (GI) (PANC-1 [2])	GI50 at 48 h [4] [µM]	GI50 (A549 [7]) [µM]	GI50 (PC-3 [10]) [µM]	GI50 (HL-60 [11]) [µM]	growth inhibition (GI) (MRC5)	GI50 (PANC-1 [18]) [µM]	further results
C/C=C(/C)C(=O)O[C@H]1[C@H](O)[C@]2(CO)[C@H](O)C[C@]3(C)C(=CC[C@@H]4[C@@]5(C)CC[C@H](O[C@@H]6O[C@H](C(=O)O)[C@@H](O)[C@H](O[C@@H]7O[C@@H](CO)[C@H](O)[C@H]7O)[C@H]6O[C@@H]6O[C@H](CO)[C@H](O)[C@H](O)[C@H]6O)C(C)(C)[C@@H]5CC[C@]43C)[C@@H]2CC1(C)C [AESCULIOSIDE IIC]	Active	111	inactive	Active	23.8	Active	inactive	> 250	–	inactive	11.2	8.67	16.3	5.75	–	–	–
C/C=C(\C)C(=O)O[C@H]1[C@H](OC(=O)/C(C)=C/C)[C@]2(CO)[C@H](O)[C@H](O)[C@]3(C)C(=CC[C@@H]4[C@@]5(C)CC[C@H](O[C@@H]6O[C@H](C(=O)O)[C@@H](O)[C@H](O[C@@H]7O[C@@H](CO)[C@H](O)[C@H]7O)[C@H]6O[C@@H]6O[C@H](CO)[C@@H](O)[C@H](O)[C@H]6O)C(C)(C)[C@@H]5CC[C@]43C)[C@@H]2CC1(C)C [AESCULIOSIDE IIIF]	–	53.7	–	–	–	–	–	> 250	Active	–	> 25	> 25	11.7	14.2	–	23.5	inhibition [19]: Active
C/C=C(/C)C(=O)O[C@H]1[C@H](OC(=O)/C(C)=C\C)[C@]2(CO)[C@H](O)C[C@]3(C)C(=CC[C@@H]4[C@@]5(C)CC[C@H](O[C@@H]6O[C@H](C(=O)O)[C@@H](O)[C@H](O[C@@H]7O[C@@H](CO)[C@H](O)[C@H]7O)[C@H]6O[C@@H]6O[C@H](CO)[C@H](O)[C@H](O)[C@H]6O)C(C)(C)[C@@H]5CC[C@]43C)[C@@H]2CC1(C)C	–	27.1	inactive	Active	23.8	–	–	> 250	–	–	7.43	6.03	3.26	1.97	–	11.9	inhibition [20]: Active; inhibition [19]: Active
C/C=C(/C)C(=O)O[C@H]1[C@H](O)[C@]2(CO)[C@H](O)C[C@]3(C)C(=CC[C@@H]4[C@@]5(C)CC[C@H](O[C@@H]6O[C@H](C(=O)O)[C@@H](O)[C@H](O[C@@H]7O[C@@H](CO)[C@H](O)[C@H]7O)[C@H]6O)[C@](C)(CO)[C@@H]5CC[C@]43C)[C@@H]2CC1(C)C [AESCULIOSIDE IID]	Active	23.8	inactive	Active	23.8	Active	inactive	> 250	–	–	15.4	12.9	5.51	7.5	–	10.3	inhibition [20]: Active
C/C=C(\C)C(=O)O[C@H]1[C@H](OC(=O)C(C)CC)[C@]2(CO)[C@H](O)[C@H](O)[C@]3(C)C(=CC[C@@H]4[C@@]5(C)CC[C@H](O[C@@H]6O[C@H](C(=O)O)[C@@H](O)[C@H](O[C@@H]7O[C@@H](CO)[C@H](O)[C@H]7O)[C@H]6O[C@@H]6O[C@H](CO)[C@H](O)[C@H](O)[C@H]6O)C(C)(C)[C@@H]5CC[C@]43C)[C@@H]2CC1(C)C (stereo partly specified) [AESCULIOSIDE IIIC]	Active	132	–	–	–	Active	–	> 250	–	–	–	17.6	12.5	13.6	Not Active	18.5	–
